This is an account of results in patent publication USRE30241E, “Esters of 3-(hydroxy or hydroxymethyl)-4-hydroxyphenyl aminomethyl ketones” (Sterling Drug Inc., priority 1970, dated 1980).

The structures appear in SMILES notation. Structures can show the parent of a compound that is named as a salt. Where two headings read alike, the source gives them in different places.

This test concerns carbachol- or histamine-induced bronchoconstriction. Description: Bronchodilator Test Method I, anesthetized dog, intravenous activity. Type of test: in vivo. Particulars: Canis lupus familiaris, read-out: Bronchodilatation; for inhibition in vivo at 0.095 mg/kg: 95 mcg/kg i.v.; for inhibition in vivo at 0.19 mg/kg: 190 mcg/kg i.v.; for inhibition in vivo at 0.38 mg/kg: 380 mcg/kg i.v.; for inhibition in vivo at 0.294 mg/kg: 294 mcg/kg i.v.; for inhibition in vivo at 1.176 mg/kg: 1176 mcg/kg i.v.; for inhibition in vivo at 0.147 mg/kg: 147 mcg/kg i.v.; for inhibition in vivo at 0.02 mg/kg: 20 mcg/kg i.v.; for inhibition in vivo at 0.1 mg/kg: 100 mcg/kg i.v.; for inhibition in vivo at 0.005 mg/kg: 5 mcg/kg i.v.; for inhibition in vivo at 0.075 mg/kg: 75 mcg/kg i.v.; for inhibition in vivo at […]: 150 mcg/kg i.v.; for inhibition in vivo at 0.3 mg/kg: 300 mcg/kg i.v.; for inhibition in vivo at 0.014 mg/kg: 14 mcg/kg i.v.; for inhibition in vivo at 0.056 mg/kg: 56 mcg/kg i.v. The protocol: Bronchodilator activity was tested in anesthetized dogs (Test Method I) and in vitro on the perfused guinea pig lung (Test Method II), using the following pharmacological test procedures
Male and female dogs weighing 9-18 kg. each were anesthetized with pentobarbital sodium (30 mg./kg. i.v.). Each animal, with thorax opened at the midsternum, was maintained under artificial ventilation using a constant volume pump (250 ml./stroke; 10 to 12 strokes per minute) attached to the tracheal cannula. The flow of air was controlled by a glass or plastic valve which closed and opened respectively on inflow and outflow of the air to and from the tracheal cannula. Bronchoconstriction and/or bronchodilatation were measured from changes in the basal airway pressure reflected by a transducer attached to the sidearm of the cannula relayed to a polygraph.
Control bronchoconstrictions were induced by intravenous injections of carbachol (choline chloride carbamate) in doses ranging from 4 to 6 micrograms per kilogram or histamine diphosphate in doses ranging from 35 to 45 micrograms per kilogram.
Solutions of the test compounds were prepared in distilled water or in saline (for infusion). […] These solutions were then tested for bronchodilator activity in three ways, viz. (1) by mixing a graded dose of test compound with the constant does of carbachol or histamine in a syringe and injecting the mixture into the femoral vein of the dog, (2) by producing the bronchoconstriction first and injecting the test compound at the time of maximum constriction, and (3) by injecting the test compound first followed by carbachol or histamine in 1-10 minutes. Injections were repeated at 20-30 minutes. Bronchodilator values were obtained by measuring the areas under the response polygraph tracings (the first 5 munite period) of carbachol or histamine controls and of the experimentals using a planimeter. Decrease in the area thus measured was expressed as a percent bronchodilatation in reference to the area of control carbachol or histamine constriction. The mean bronchodilatations (the reductions in constrictions) were plotted against the doses administered and the mean effective dose (ED50) was estimated in micrograms/kilogram from the does-response curves. Blood pressure recording was taken from the femoral artery using an arterial transducer relayed to a polygraph.

For `Cc1ccccc1C(=O)Oc1ccc(C(O)CNC(C)(C)C)cc1OC(=O)c1ccccc1C` (stereo not drawn) [Example 111, 3,4-bis(o-toluyloxy)-alpha-(tert-butylaminomethyl)benzyl alcohol methanesulfonate], where the note is “1 min, 9.5 mcg/kg i.v., 1-2 min”, the inhibition in vivo at 0.0095 mg/kg is 0%. Also, the inhibition in vivo at 0.095 mg/kg (1 min, 1-2 min) turned out to be 34%; the inhibition in vivo at 0.095 mg/kg (0.5 h, 30 min) came out at 36%; the inhibition in vivo at 0.095 mg/kg (2 h, 120 min) worked out at 32%; the inhibition in vivo at 0.095 mg/kg (3 h, 180 min) came to 48%; the inhibition in vivo at 0.095 mg/kg (4 h, 240 min) was found to be 41%; the inhibition in vivo at 0.095 mg/kg (5 h, 300 min) was 50%. Besides, the inhibition in vivo at 0.19 mg/kg (1 min, 1-2 min) worked out at 27%; the inhibition in vivo at 0.19 mg/kg (1 h, 60 min) came to 18%; the inhibition in vivo at 0.19 mg/kg (2 h, 120 min) is 31%; the inhibition in vivo at 0.19 mg/kg (3 h, 180 min) was determined as 35%; the inhibition in vivo at 0.19 mg/kg (4 h, 240 min) worked out at 41%; the inhibition in vivo at 0.19 mg/kg (5 h, 300 min) came out at 25%. Besides, the inhibition in vivo at 0.38 mg/kg is 33% (1 min, 1-2 min); 53% (0.5 h, 30 min); 55% (2 h, 120 min); 38% (3 h, 180 min). Besides, the inhibition in vivo at 0.0475 mg/kg (2 h, 47.5 mcg/kg i.v., 120 min) worked out at 0%.

On to `CNCC(O)c1ccc(OC(=O)c2ccc(C)cc2)c(OC(=O)c2ccc(C)cc2)c1` (stereo not drawn) [Example 126, 3,4-bis(p-toluyloxy)-alpha-(methylaminomethyl)benzyl alcohol methanesulfonate], for which, for the setting “1 min, 1-2 min”, the inhibition in vivo at 0.294 mg/kg is 13% and the inhibition in vivo at 1.176 mg/kg turned out to be 100%. Further, for the setting “0.5 h, 30 min”, the inhibition in vivo at 0.147 mg/kg worked out at 27%, the inhibition in vivo at 0.294 mg/kg came to 8% and the inhibition in vivo at 1.176 mg/kg was found to be 47%. Under “1 h, 60 min”, the inhibition in vivo at 0.147 mg/kg came out at 15%, the inhibition in vivo at 0.294 mg/kg turned out to be 17% and the inhibition in vivo at 1.176 mg/kg is 20%.

Consider `CC(C)CC(=O)OCc1cc(C(O)CNC(C)(C)C)ccc1OC(=O)CC(C)C` (stereo not drawn) [Example 136, 3-(isovaleryloxymethyl)-4-(isovaleryloxy)-alpha-(tert-butylaminomethyl)benzyl alcohol methanesulfonate], for which the inhibition in vivo at 0.02 mg/kg reads like this: (5 min, 5 min) 36%; (0.5 h, 30 min) 53%; (1 h, 60 min) 57%; (2 h, 120 min) 40%; (3 h, 180 min) 12%; (4 h, 240 min) 7%. The inhibition in vivo at 0.02 mg/kg (5 h, 300 min) amounted to 12%. Also, the inhibition in vivo at 0.1 mg/kg reads like this: (5 min, 5 min) 82%; (0.5 h, 30 min) 80%; (1 h, 60 min) 70%; (2 h, 120 min) 60%; (3 h, 180 min) 42%; (5 h, 300 min) 32%. In addition, the inhibition in vivo at 0.005 mg/kg by setting is: (1 h, 60 min) 47%; (3 h, 180 min) 53%; (4 h, 240 min) 46%; (5 h, 300 min) 46%.

On to `CC(=O)OC(CNC(C)(C)C)c1ccc(OC(=O)c2ccc(C)cc2)c(OC(=O)c2ccc(C)cc2)c1` (stereo not drawn) [Example 134, 3,4-bis(p-toluyloxy)-alpha-(tert-butylaminomethyl)benzyl acetate], for which the inhibition in vivo at 0.075 mg/kg runs as follows: (5 min, 5 min) 25%; (0.5 h, 30 min) 21%; (1 h, 60 min) 5%; (2 h, 120 min) 0%; (3 h, 180 min) 0%. Also, the inhibition in vivo at […] amounted to 54% (5 min, 5 min); 58% (0.5 h, 30 min); 52% (1 h, 60 min); 35% (2 h, 120 min); 20% (3 h, 180 min); 0% (4 h, 240 min). Further, the inhibition in vivo at 0.3 mg/kg is, setting by setting: (5 min, 5 min) 47%; (4 h, 240 min) 36%.

For the molecule `COc1ccc(CC(=O)Oc2ccc(C(O)CNC(C)(C)C)cc2OC(=O)Cc2ccc(OC)cc2)cc1` (stereo not drawn) [Example 118, 3,4-bis(p-methoxyphenylacetoxy)-alpha-(tert-butylaminomethyl)benzyl alcohol hydrochloride], the inhibition in vivo at 0.014 mg/kg is 68% (5 min, 5 min); 61% (0.5 h, 30 min); 35% (1 h, 60 min); 7% (2 h, 120 min). The inhibition in vivo at 0.056 mg/kg was 100% (5 min, 5 min); 60% (0.5 h, 30 min); 45% (1 h, 60 min); 12% (2 h, 120 min).
